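Test compounds were applied to cells in 96-well plates for 48 hours at 5 doses. At the GI50, growth is halved.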 Calls of active or inactive are those of the source. Rule as the data show it: active = GI50 up to about 1.1 µM and inactive = higher. *1 amine or outer side, *2 acyl side, *3 side chain or, on linkers, in order; H or OH if unused. Where a SMILES comes first, the peptide text is derived from it. Bridges are numbered along the chain shown (N, C = ends). Roman numbers before positions name the chains, in order. [ ]: non-standard residue; d: D form. Actinocin(9to1) = Cc1c2oc3c(C)ccc(C(=O)[*:1])c3nc-2c(C(=O)[*:2])c(N)c1=O; Hyp = O=C(O)[CH]1C[CH](O)CN1; NMeV = CN[CH](C(=O)O)C(C)C; Sar = CNCC(=O)O
Key:
Assay in all cases: NCI anticancer screen, dose series, 48 h
U-251 = test system: U-251
SW-620 = test system: SW-620
DU-145 = test system: DU-145
HCT-15 = test system: HCT-15
NCI-H522 = test system: NCI-H522
KM12 = test system: KM12
NCI/ADR-RES = test system: NCI/ADR-RES
NCI-H23 = test system: NCI-H23
K562 = test system: K562
TK-10 = test system: TK-10
NCI-H226 = test system: NCI-H226
NCI-H460 = test system: NCI-H460
BT-549 = test system: BT-549
SF-295 = test system: SF-295
SK-MEL-5 = test system: SK-MEL-5
UO-31 = test system: UO-31
IGROV-1 = test system: IGROV-1
ACHN = test system: ACHN
SR = test system: SR

| Structure (SMILES) | GI50 (U-251) | GI50 (SW-620) | GI50 (DU-145) | GI50 (HCT-15) [µM] | GI50 (NCI-H522) | GI50 (KM12) | GI50 (NCI/ADR-RES) | GI50 (NCI-H23) | GI50 (K562) | GI50 (TK-10) | GI50 (NCI-H226) | GI50 (NCI-H460) | GI50 (BT-549) | GI50 (SF-295) | GI50 (SK-MEL-5) | GI50 (UO-31) | GI50 (IGROV-1) | GI50 (ACHN) | GI50 (SR) |
| --- | --- | --- | --- | --- | --- | --- | --- | --- | --- | --- | --- | --- | --- | --- | --- | --- | --- | --- | --- |
| CC1OC(O)C(O)C(O)C1O (stereo not given) | > 100 µM (inactive) | > 100 µM (inactive) | > 100 µM (inactive) | > 100 | > 100 µM (inactive) | > 100 µM (inactive) | > 100 µM (inactive) | > 100 µM (inactive) | > 100 µM (inactive) | > 100 µM (inactive) | > 100 µM (inactive) | > 100 µM (inactive) | > 100 µM (inactive) | > 100 µM (inactive) | > 100 µM (inactive) | > 100 µM (inactive) | > 100 µM (inactive) | > 100 µM (inactive) |  |
| Cc1nc2ccccc2c(=O)n1NC(=O)c1ccccc1O | > 100 µM (inactive) | > 100 µM (inactive) | > 100 µM (inactive) | > 100 | > 100 µM (inactive) | > 100 µM (inactive) |  | > 100 µM (inactive) | > 100 µM (inactive) | > 100 µM (inactive) | > 100 µM (inactive) | > 100 µM (inactive) | > 100 µM (inactive) | > 100 µM (inactive) | > 100 µM (inactive) | > 100 µM (inactive) | > 100 µM (inactive) | > 100 µM (inactive) | > 100 µM (inactive) |
| N#Cc1nc(CCC(c2nc(C#N)c(N)o2)N2C(=O)c3ccccc3C2=O)oc1N (stereo not given) | > 100 µM (inactive) | > 100 µM (inactive) | > 100 µM (inactive) | > 100 | > 100 µM (inactive) | > 100 µM (inactive) | > 100 µM (inactive) | > 100 µM (inactive) | 32.8 µM (inactive) | > 100 µM (inactive) | > 100 µM (inactive) | > 100 µM (inactive) |  | > 100 µM (inactive) | > 100 µM (inactive) | > 100 µM (inactive) | > 100 µM (inactive) | > 100 µM (inactive) | < 0.01 µM (active) |
| COc1ccc(OC)c(/C=N/N=C2\C(=O)Nc3c(Cl)cc(Cl)cc32)c1 | 38.7 µM (inactive) | 43.4 µM (inactive) |  | 36.6 |  | 35.4 µM (inactive) | 20.2 µM (inactive) | 48.4 µM (inactive) | 36 µM (inactive) | > 100 µM (inactive) | 82.6 µM (inactive) | 63.5 µM (inactive) | 26.1 µM (inactive) | 32.1 µM (inactive) | 56.1 µM (inactive) | 41.6 µM (inactive) | 34.3 µM (inactive) | 52.4 µM (inactive) | 25.1 µM (inactive) |
| Cc1c2oc3c(C)ccc(C(=O)NC4C(=O)NC(C(C)C)C(=O)N5CC(O)CC5C(=O)N(C)CC(=O)N(C)C(C(C)C)C(=O)OC4C)c3nc-2c(C(=O)NC2C(=O)NC(C(C)C)C(=O)N3CC(O)CC3C(=O)N(C)CC(=O)N(C)C(C(C)C)C(=O)OC2C)c(N)c1=O (stereo not given) (I: TV[Hyp][Sar][NMeV] / II: TV[Hyp][Sar][NMeV]; ester I:1-I:C, II:1-II:C; linker I:N-II:N via Actinocin(9to1); configuration not given here) | > 1 µM (active) | > 1 µM (active) | > 1 µM (active) | > 1 | 0.0522 µM (active) | > 1 µM (active) | > 1 µM (active) | > 1 µM (active) | > 1 µM (active) | > 1 µM (active) | > 1 µM (active) | > 1 µM (active) |  | > 1 µM (active) | > 1 µM (active) | > 1 µM (active) | > 1 µM (active) | > 1 µM (active) | 0.748 µM (active) |
| Cc1ccc(S(=O)(=O)NC2C(=O)c3ccccc3C(=O)C2n2ccnc2)cc1 (stereo not given) | > 100 µM (inactive) | > 100 µM (inactive) | 17 µM (inactive) | > 100 | < 0.01 µM (active) | > 100 µM (inactive) | > 100 µM (inactive) | 25.4 µM (inactive) | > 100 µM (inactive) | > 100 µM (inactive) | > 100 µM (inactive) | > 100 µM (inactive) |  | > 100 µM (inactive) | 48.5 µM (inactive) | > 100 µM (inactive) | > 100 µM (inactive) | > 100 µM (inactive) | 67.8 µM (inactive) |
| CO[C@@H](C(=O)OC1C=CC2(CC1)C(=O)N(C)c1ccccc12)c1ccccc1 (stereo not given in full) | > 100 µM (inactive) | > 100 µM (inactive) | > 100 µM (inactive) | > 100 |  | > 100 µM (inactive) | 45.1 µM (inactive) | 76.6 µM (inactive) | 20 µM (inactive) | > 100 µM (inactive) |  | > 100 µM (inactive) |  | > 100 µM (inactive) | 34.3 µM (inactive) | > 100 µM (inactive) | > 100 µM (inactive) | > 100 µM (inactive) | 42.1 µM (inactive) |
| O=C1C(Br)=C(c2ccccc2)O/C1=C/C(=O)c1ccc(Br)cc1 | 30.8 µM (inactive) | 23.5 µM (inactive) | > 100 µM (inactive) | 89.9 | 16.9 µM (inactive) | > 100 µM (inactive) |  | > 100 µM (inactive) | 25.6 µM (inactive) | 37.3 µM (inactive) | > 100 µM (inactive) | > 100 µM (inactive) | 5.38 µM (inactive) |  | 52.8 µM (inactive) | 28.8 µM (inactive) | 54.7 µM (inactive) | 38.5 µM (inactive) | 27.5 µM (inactive) |
| Cc1ccc(S(=O)(=O)NC(=O)NCCc2ccc(O)c(O)c2)cc1 | > 100 µM (inactive) | > 100 µM (inactive) | > 100 µM (inactive) | > 100 | > 100 µM (inactive) | > 100 µM (inactive) | > 100 µM (inactive) | > 100 µM (inactive) | > 100 µM (inactive) | > 100 µM (inactive) | > 100 µM (inactive) | > 100 µM (inactive) |  | > 100 µM (inactive) | 37.2 µM (inactive) | > 100 µM (inactive) | > 100 µM (inactive) | > 100 µM (inactive) | > 100 µM (inactive) |
| Clc1ccc(CSc2ncnc3c2ncn3C2CCCCO2)cc1 (stereo not given) | 19.6 µM (inactive) | 29.9 µM (inactive) | 31.2 µM (inactive) | 26.5 | 13.8 µM (inactive) | 19.1 µM (inactive) | 17.9 µM (inactive) | 17.4 µM (inactive) | 12.6 µM (inactive) | 21.8 µM (inactive) | 28.4 µM (inactive) | 16.9 µM (inactive) | 24.3 µM (inactive) | 15.7 µM (inactive) | 10.9 µM (inactive) | 1.88 µM (inactive) | 30.3 µM (inactive) | 16.1 µM (inactive) |  |
| O=P(O)(O)c1ccc2c(c1)OCCOCCOCCOCCO2 |  | > 100 µM (inactive) | > 100 µM (inactive) | > 100 | > 100 µM (inactive) | > 100 µM (inactive) |  | > 100 µM (inactive) | > 100 µM (inactive) | > 100 µM (inactive) | > 100 µM (inactive) | > 100 µM (inactive) | > 100 µM (inactive) | > 100 µM (inactive) | > 100 µM (inactive) | > 100 µM (inactive) | > 100 µM (inactive) | > 100 µM (inactive) | > 100 µM (inactive) |
| CC(C)(C)O/C=C1/C(=O)OC2C[C@@H](O[Si](C)(C)C(C)(C)C)CC12 (stereo not given in full) | 48 µM (inactive) | 54.3 µM (inactive) | 29.4 µM (inactive) | 49.3 | 27.6 µM (inactive) | 65.2 µM (inactive) | 55.1 µM (inactive) | 39.7 µM (inactive) |  | > 100 µM (inactive) | 92.7 µM (inactive) | 79.8 µM (inactive) | 56.5 µM (inactive) | 61.5 µM (inactive) | 60.3 µM (inactive) | 52.2 µM (inactive) | 72.6 µM (inactive) | 72.6 µM (inactive) |  |
| O=C(OC[C@H]1C[C@H]2C(=O)CCC[C@H]2O1)c1ccccc1 | > 100 µM (inactive) | > 100 µM (inactive) | > 100 µM (inactive) | > 100 | > 100 µM (inactive) | > 100 µM (inactive) | > 100 µM (inactive) | > 100 µM (inactive) | > 100 µM (inactive) | > 100 µM (inactive) | > 100 µM (inactive) | > 100 µM (inactive) |  | > 100 µM (inactive) | > 100 µM (inactive) | > 100 µM (inactive) | > 100 µM (inactive) | > 100 µM (inactive) | > 100 µM (inactive) |
| O=C(/C=C/c1cccs1)c1ccsc1 | > 10 µM (inactive) | 29 µM (inactive) | 50.2 µM (inactive) | 16.8 |  | > 10 µM (inactive) | 35.2 µM (inactive) | 18.1 µM (inactive) | 17.5 µM (inactive) | 22.7 µM (inactive) | 21.1 µM (inactive) | 24.5 µM (inactive) |  | 32.4 µM (inactive) | 18.9 µM (inactive) | 17.6 µM (inactive) | 25.1 µM (inactive) | 20.2 µM (inactive) | 16.6 µM (inactive) |
| CC1(C)OCC([C@H]2CC23SCCCS3)O1 (stereo not given in full) | > 100 µM (inactive) |  |  | > 100 | > 100 µM (inactive) | > 100 µM (inactive) |  | > 100 µM (inactive) | > 100 µM (inactive) | > 100 µM (inactive) | > 100 µM (inactive) | > 100 µM (inactive) |  | > 100 µM (inactive) | > 100 µM (inactive) | > 100 µM (inactive) | > 100 µM (inactive) | > 100 µM (inactive) | > 100 µM (inactive) |
| Cc1cc2c(=O)c3ccccc3oc2c(C#N)c1C | > 100 µM (inactive) | > 100 µM (inactive) | > 100 µM (inactive) |  |  | > 100 µM (inactive) | > 100 µM (inactive) | > 100 µM (inactive) | > 100 µM (inactive) | > 100 µM (inactive) |  | > 100 µM (inactive) |  | > 100 µM (inactive) | > 100 µM (inactive) | > 100 µM (inactive) | > 100 µM (inactive) | > 100 µM (inactive) | > 100 µM (inactive) |

Reference: ChEMBL document CHEMBL1201862, “PubChem BioAssay data set” (2004)
